Results: publication PMC3989846 (Malaria Journal, 2014)
Like-named read-outs stand apart in the source and are kept apart here.

Assay: Plasma pharmacokinetics after single intravenous or intragastric dose
Type: in vivo, male ICR mice
Settings: for Cmax / bioavailability / AUC(0-t) / MRT / AUC / Tmax / half-life / clearance / Vd: ICR, mouse; for bioavailability: intragastric 20 mg/kg vs intravenous 5 mg/kg, read-out: Absolute bioavailability; for AUC: read-out: AUCinfininty; for half-life: read-out: t1/2 elimination (converted); for Vd: read-out: Vz
Method: PK studies were performed using both intravenous (IV) and intragastric (IG) administration. For each time point to be acquired, three male ICR mice per time-point, aged seven weeks, were dosed at either PQ or TQ at 5 mg/kg (IV) or 20 mg/kg (IG). Drug vehicle for IV studies was 0.9% saline solution, and the formulated drugs were administered in a volume of 100 μL/20 g of body weight. For IG dosing, the drug vehicle was 0.5% HECT, administered at 100 μL/20 g. At each time point, plasma and liver samples were collected. Whole blood was collected by cardiac puncture. […] Following the separation of appropriate aliquots, plasma was obtained from the whole blood via centrifugation. All liquid and tissue samples were immediately preserved on dry ice and lately stored at -80°C until analytical work was performed.
Sample was prepared by adding twice the normal volume of acetonitrile containing indomethacin internal standard (IS). The samples were mixed for 1 minute, centrifugation for 5 minutes, and the supernatant was transferred to an autosampler injection vial prior to separation by LC/MS/MS. Standard curve and quality control (QC) samples were generated by spiking interference free mouse plasma samples with known amounts of PQ, TQ and IS. Standard curve, QC, and assay samples were prepared and then 40 μL aliquots were injected into the LC/MS/MS system for chromatographic separation and subsequent mass spectrometric detection.
Chromatography was performed using a Surveyor pump (Thermo Scientific, Waltham, MA) with Waters XTerra MS C18 50 mm × 2.1 mm id, 3.5 μm particle size columns (Waters Corp., Milford, MA). Mobile phase consisted of a water/0.1% formic acid (Solvent A)/acetonitrile/0.1% formic acid (Solvent B) gradient. […] Flow rate was 300 μL/min. Samples were injected using an HTC PAL autosampler (LEAP Technologies, Carrboro, NC). Tandem mass spectrometry was performed using a TSQ Quantum AM (Thermo Scientific).
Drug concentrations were generated for each sample taken from animals dosed with both test drugs. A measured plasma and liver drug concentration vs. time curve was produced, in graphic and tabular form, for each subject on both linear/linear and log/linear scales, for the parent compound. Mean plasma drug concentration vs. time curves were also prepared separately. For the determination of initial approach to PK parameters of TQ and PQ in plasma and liver tissues after systemic application, a non-compartmental analysis was performed using Phoenix (version 6.1; Pharsight Corp., Mountain View, CA). Maximum plasma and liver concentration (Cmax), and time to maximum concentration (tmax) of TQ and PQ were obtained from the plasma and liver drug concentration-time curves. The elimination half-life (t1/2) was calculated from In2/kel, which is the elimination rate constant calculated from the log concentration-time plot. The area under the curve (AUC) and the area under the first moment curve (AUMC) were determined by the linear trapezoidal rule with extrapolation to infinity based on the concentration of the last time point divided by the terminal rate constant. Mean clearance rate (CL) was determined by dividing the dose by the AUCinf for intravenous injection for plasma samples. Absolute bioavailability was calculated by taking the dose-corrected area under the curve (AUC) from non-intravenous dosing divided by the AUC derived from intravenous dosing. Mean residence time (MRT) was determined by dividing the area under the first moment curve (AUMC) by AUC. The volume of the central compartment (Vz) and volume of the tissue compartment (Vz/F) were calculated as the product of CL and MRT.

[1] = male, po, intragastric 20 mg/kg, plasma
[2] = male, intravenous 5 mg/kg, plasma
[3] = male, in vivo, po, intragastric 20 mg/kg, plasma
[4] = male, in vivo, intravenous 5 mg/kg, plasma

COc1cc(C)c2c(Oc3cccc(C(F)(F)F)c3)c(OC)cc(NC(C)CCCN)c2n1 (centres unmarked) [Tafenoquine, tafenoquine]
Cmax (intravenous 5 mg/kg, plasma, male mice): 660 ± 130 ng/mL
Cl (intragastric 20 mg/kg, plasma): 0.15 ± 0.03 L/h/kg
Vz (intragastric 20 mg/kg, plasma): 10.60 ± 1.22 L/kg
bioavailability (male, oral, plasma): 101 ± 37.5%
AUC(0-t) [1]: 138000 ± 24400 ng·h/mL
Cmax [1]: 2040 ± 590 ng/mL
MRT [1]: 62.1 ± 2.3 h
AUC [1]: 139000 ± 24900 ng·h/mL
Tmax (male, po, intragastric 20 mg/kg, plasma, read-out: Tmax): 680 ± 322 min
half-life [1]: 2.12 ± 0.176 days
AUC(0-t) [2]: 29600 ± 6740 ng·h/mL
MRT [2]: 55.9 ± 3.86 h
clearance [2]: 2.83 mL/min/kg
AUC [2]: 30100 ± 6650 ng·h/mL
Tmax (male, intravenous 5 mg/kg, plasma, read-out: Tmax): 81.6 ± 66.6 min
Vd [2]: 16.8 ± 6.44 L/kg
half-life [2]: 2.76 ± 0.43 days
absolute bioavailability of oral TQ, fold greater than oral PQ (oral): 3.5 fold
clearance as % of the hepatic blood flow (oral CL 0.15 L/hours/kg): 3%
AUCinf of oral TQ, fold higher than oral PQ (oral, plasma): 94 fold
Cmax of oral TQ, fold higher than oral PQ (oral, plasma): approximately 4 fold
elimination clearance of oral TQ, fold slower than oral PQ (oral, plasma): 370 fold
absorption rate of oral TQ, fold slower than PQ (oral, plasma, mice): 22.7 fold
duration of quantifiable concentrations (single 20 mg/kg dose): more than two weeks

COc1cc(NC(C)CCCN)c2ncccc2c1 (centres unmarked) [Primaquine, primaquine]
Cmax (in vivo, intravenous 5 mg/kg, plasma, male mice): 1210 ± 210 ng/mL
Cl (intragastric 20 mg/kg, plasma): 57.94 ± 20.52 L/h/kg
Vz (intragastric 20 mg/kg, plasma): 154.66 ± 61.83 L/kg
AUCinfininty (intravenous 5 mg/kg, plasma, 5 mg/kg): 1.26 ± 0.14 µg·h/mL
AUC (male, in vivo, iv, 5 mg/kg, intravenous 5 mg/kg, plasma): 1200 ng·h/mL
AUC (male, in vivo, po, 20 mg/kg, intragastric 20 mg/kg, plasma): 1310 ± 410 ng·h/mL
AUC(0-t) [3]: 1260 ± 400 ng·h/mL
Cmax [3]: 530 ± 70 ng/mL
MRT [3]: 2.28 ± 0.1 h
Tmax (male, in vivo, po, intragastric 20 mg/kg, plasma, read-out: Tmax): 30 min
Tmax (male, in vivo, absorbed from the gastrointestinal tract, mice, read-out: time to peak plasma levels): ≤ 5 min
bioavailability (male, in vivo, plasma): 28.3 ± 6.93%
AUC(0-t) [4]: 1200 ± 130 ng·h/mL
MRT [4]: 0.68 ± 0.02 h
clearance [4]: 69.8 mL/min/kg
Tmax (male, in vivo, intravenous 5 mg/kg, plasma, read-out: Tmax): 4.8 min
Vd [4]: 3.85 ± 0.71 L/kg
